Reference: the METLIN SMRT retention time set (Domingo-Almenara et al. 2019)

Assay: gradient 5% acetonitrile 3 min, to 50% in 2 min, to 85% in 15 min, held 3 min, 100 µL/min
Settings: column: Zorbax Extend-C18 2.1 x 50 mm; eluents: water / acetonitrile, 0.1% formic acid
How it was run: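 In both positive and negative ionization mode, a quadrupole time-of-flight mass spectrometer coupled to HPLC analyzed pure standards run in mixtures of ~100 molecules. The Zorbax Extend-C18 column (2.1 × 50 mm, 1.8 μm) was operated at 100 μL/min with water and acetonitrile, each containing 0.1% formic acid. The dead volume was 40 μL and the dwell volume 900 μL. Retention time came from adduct peaks that were computationally picked and individually inspected by hand.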

| SMILES | RP-LC retention time |
| --- | --- |
| COCCCn1c(=O)c2ccccc2n(Cc2nc(-c3ccccc3C)no2)c1=O | 1020 s |
| CCOC(=O)C1CCN(C(=O)NCc2cccs2)CC1 | 677 s |
| CCn1c(=O)c(C)nc2cc(-c3noc(C4CC(=O)N(c5cccc(Cl)c5)C4)n3)ccc21 (centres undefined) | 966 s |
| Cc1ccc(NS(=O)(=O)c2cc(-c3cc(C(F)(F)F)on3)sc2C)c(Cl)c1 | 1220 s |
| O=C(NCCC1=CCCCC1)C1CC(=O)N(C2CCCCCC2)C1 (centres undefined) | 906 s |
| CC1CCN(CCCNC(=O)C(=O)Nc2ccc3nc4n(c(=O)c3c2)CCCCC4)CC1 | 615 s |
| Cc1cc(F)ccc1NC(=O)Cn1c(N)nc(C)c(C)c1=O | 617 s |
| O=C(NC1CCN(c2cc(-c3ccc(Cl)cc3)[nH]n2)C1)c1ccccn1 (centres undefined) | 751 s |
| CCCNS(=O)(=O)c1cc(-c2[nH]ncc2C(=O)N2CCOCC2)oc1C | 662 s |
| Cc1nc2cc3c(cc2n1CC(=O)NC(C)c1ccc2c(c1)OCCCO2)OCCO3 (centres undefined) | 634 s |
| O=C(Nc1ccc2c(c1)OCCO2)C1CCN(C(=O)c2ccc(-c3noc(C4CC4)n3)cc2)CC1 | 828 s |
| OC1(Cc2ccccc2)CCNCC1 | 612 s |
| COc1ccc2nc(C(=O)NC(C)c3ccc(F)cc3)cn2n1 (centres undefined) | 821 s |
| COc1ccc(S(=O)(=O)Cc2nc(-c3ccccc3Cl)no2)cc1 | 966 s |
| Cc1cc(C)c(CN2CCn3c(nn(C)c3=O)C2)c(C)c1 | 868 s |
| CC(=O)Cc1nsc(NC(=O)c2ccc(C(C)(C)C)cc2)n1 | 874 s |
| NC(=O)[C@H](Cc1ccccc1)NC(=O)[C@H](Cc1c[nH]c2ccccc12)NC(=O)[C@@H]1CCCN1C(=O)[C@@H](N)Cc1ccc(O)cc1 | 680 s |
| Cc1cc(C)c(NC(=O)Cn2cnc3c(sc4nc(-c5ccccc5)ccc43)c2=O)c(C)c1 | 1050 s |
| COc1cc2c(cc1CNC(=O)c1ccco1)OCCCO2 | 755 s |
| CCN(CC)c1nc2cc(C(=O)N3CCN(c4ccccn4)CC3)ccc2c(=O)n1Cc1ccccc1 | 729 s |
| Nc1nc(-c2ccc(S(=O)(=O)N3CCOCC3)cc2)cs1 | 620 s |
| COc1cccc(-c2ccc3nc(N4CCC(C(=O)N5CCCC5)CC4)sc3n2)c1 | 912 s |
| CC(C)Cn1nc2n(c1=O)CCN(S(=O)(=O)c1cc(F)ccc1F)CC2 | 802 s |

| SMILES | RP-LC retention time |
| --- | --- |
| O=C(c1ccccc1Br)N(Cc1cccc(Cl)c1)C1CCS(=O)(=O)C1 (centres undefined) | 846 s |
| Cc1nc(-c2ccc(NC(=O)N3CCN(c4ccccn4)CC3)cc2)no1 | 588 s |
| O=C(c1cnn(-c2ccccc2)n1)N1CCC(c2nnc(-c3ccc(F)cc3)o2)CC1 | 888 s |
| Cc1cc(F)ccc1NS(=O)(=O)c1c(C)sc(C)c1-c1cc(C(F)(F)F)on1 | 1200 s |
| CCOCCCNC(=O)Nc1c(-c2cccc(C)c2)nc2ccccn12 | 863 s |
| CCOC(=O)c1noc2ncnc(N3CCCc4ccccc43)c12 | 988 s |
| CC(=O)N1CCc2cc(N3CC(C(=O)NCc4cc(C)ccc4C)CC3=O)ccc21 (centres undefined) | 742 s |
| CC(C)c1nc(-n2cccc2)sc1C(=O)NCCc1ccccc1 | 1190 s |
| CCN(CC)CCCn1c(C)cc2c(c1=O)C(c1ccc(Cl)cc1)C(C#N)=C(N)O2 (centres undefined) | 658 s |
| CC(=O)N1CCC(C2CCN(Cc3ccc(Br)s3)C2)CC1 (centres undefined) | 603 s |
| COc1ccc(S(=O)(=O)N2CCC(Cc3nncn3-c3ccccc3)CC2)cc1 | 775 s |
| O=C(Cc1ccsc1)N1CCCC1c1nc(-c2ccc(F)cc2F)no1 (centres undefined) | 922 s |
| CCc1ccc(N2C(=O)C3N=NN(c4cccc(OC)c4)C3C2=O)cc1 (centres undefined) | 1020 s |
| Cc1cc(C)n(-c2cc(NC(C)C)ncn2)n1 | 756 s |
| O=C(Cc1nc(-c2ccccc2)n[nH]1)Nc1ccc(Cl)cc1 | 789 s |
| CCCn1cc(CCNC(=O)c2cc(Cl)ccc2F)c2cccnc21 | 852 s |
| CCn1c(C)c(-c2nc(C3CC3)no2)c(S(=O)(=O)N2CCC(C)CC2)c1C | 904 s |
| CC1CCN(S(=O)(=O)c2ccc(-c3nnc(C(=O)NCCC4=CCCCC4)o3)cc2)CC1 | 1190 s |
| Cc1c(C)n(-c2ccccc2)c2ncn(CC(=O)NC(C)Cc3ccco3)c(=O)c12 (centres undefined) | 848 s |
| COc1cc(Nc2c(C(=O)N3CCCCC3C)cnc3nc(C)ccc23)cc(OC)c1 (centres undefined) | 649 s |
| CC(C)CN1C(=O)CCc2cc(NS(=O)(=O)c3cccc(F)c3)ccc21 | 898 s |
| CCN1CCCn2cc(S(=O)(=O)Nc3ccc(F)c(C)c3)cc2C1=O | 755 s |
| Cc1noc(C)c1CN1CCN(C(=O)C(C)(C)Oc2ccc(Cl)cc2)CC1 | 606 s |

| SMILES | RP-LC retention time |
| --- | --- |
| O=C(NCCc1ccccc1)N1CCN(c2nc3cccnc3n(Cc3ccccc3)c2=O)CC1 | 1080 s |
| O=S(=O)(c1ccc2nncn2c1)N(Cc1ccccc1F)c1cc(F)cc(F)c1 | 874 s |
| Cc1cccc(C)c1NC(=O)CN1CCCC1=O | 697 s |
| O=C(c1cc2ccccc2[nH]1)N1CCN(C(=O)c2ccc(Br)o2)CC1 | 797 s |
| C=CCN1CCc2c(cc(O)c(O)c2Br)[C@@H](c2ccccc2)C1 | 670 s |
| Cn1cc(S(=O)(=O)N2CCCC2)cc1C(=O)N1CCN(c2ccccn2)CC1 | 594 s |
| CCc1ccc(C2=C(C)C(N3CCCN(C(=O)C(C)(C)CC)CC3)=NS2(=O)=O)cc1 | 935 s |
| CCOc1cc(=O)n2c(c1C(=O)Nc1cccc(SC)c1)CCCC2 | 767 s |
| COCCn1cnc2c(-c3ccccc3)cn(CC(=O)NC3CCCC3)c2c1=O | 837 s |
| O=C(CCCSc1ccc(NC(=O)c2ccc(F)cc2)nn1)Nc1cccnc1 | 586 s |
| O=C(NC1CCCCC1)C1CCCN(c2nccn3nc(-c4ccccc4Cl)cc23)C1 (centres undefined) | 976 s |
| CCN(CC)C(=O)C1C(=O)NC2(C)CC1c1ccccc1O2 (centres undefined) | 716 s |
| Cc1cc(N(CCO)Cc2ccccc2)n2nc(-c3ccccc3C)nc2n1 | 786 s |
| O=C1c2ccccc2C(=O)c2[nH]cnc21 | 661 s |
| CCOc1ccc(-n2c(N3CCCC3)nc3cc(C(=O)OC)ccc3c2=O)cc1 | 963 s |
| COc1ccc(-c2cc(C(=O)Nc3cc(C)ccc3C)nn2C2CCS(=O)(=O)C2)cc1 (centres undefined) | 982 s |
| CCCCCOc1ccc(C(=O)N(Cc2ccc(C)o2)C2CCS(=O)(=O)C2)cc1 (centres undefined) | 1110 s |
| O=C(NCc1ccc(F)cc1F)C1CCN(c2nnc(-c3ccccc3)o2)CC1 | 816 s |
| CS(=O)(=O)N1CCCC(C(=O)Nc2ccc(Cl)cc2C(=O)c2ccccc2)C1 (centres undefined) | 869 s |
| CC(=O)c1ccc(NC(=O)Cn2nc3c4cc(-c5ccc(Cl)cc5)nn4ccn3c2=O)cc1 | 894 s |
| Cc1sc(-c2nc(C(C)C)cs2)cc1S(=O)(=O)NCc1ccc2c(c1)OCO2 | 1130 s |
| O=C(CN1CCN(Cc2ccccc2)C1=O)NCc1cccc(F)c1 | 761 s |
| CSc1cccc2sc(Nc3nc(C)c(C(C)=O)s3)nc12 | 842 s |

| SMILES | RP-LC retention time |
| --- | --- |
| COc1ccc(NC(=O)Cn2nc3cc(C)nc(Nc4ccc(C)c(C)c4)n3c2=O)cc1 | 1090 s |
| Cc1cccc(-c2nc(Cn3nnc(C(=O)NCc4cccc(Br)c4)c3C)c(C)o2)c1 | 1210 s |
| Cc1ccccc1NC(=O)NC1CCN(C(=O)C2CC2)C1 (centres undefined) | 660 s |
| Cc1ccc(CN2CCC(CNC(=O)Cn3ccc4c(=O)n(C)c(=O)n(C)c43)CC2)cc1 | 601 s |
| O=C(Cn1cccc1-c1nc(-c2ccc(Cl)cc2)cs1)N1CCN(c2ccccn2)CC1 | 772 s |
| Fc1ccccc1-c1nnc(CN2CCN(c3ccccn3)CC2)o1 | 596 s |
| COc1ccc(-c2nnc(-c3ccccc3)o2)cc1S(=O)(=O)NC(C)(C)C | 955 s |
| O=C(c1ccccn1)N1CCCn2nc(-c3ccc(Cl)cc3)cc2C1 | 817 s |
| CN1c2cc(Cl)ccc2C(=O)NC12CCN(C(=O)Nc1ccccc1)CC2 | 795 s |
| CCCCN(C)C(=O)C(C)n1nc(C)c2nn(-c3ccccc3)c(-n3cccc3)c2c1=O (centres undefined) | 1010 s |
| CC(C)CNc1nc(-c2ccc([N+](=O)[O-])cc2)nc2ccccc12 | 821 s |
| Cc1cc(C)c2c(N3CCSCC3)nc(C(=O)N(C)Cc3ccccc3)nc2n1 | 682 s |
| CCOC(=O)c1cn(Cc2ccccc2F)c2nc(C)ccc2c1=O | 880 s |
| O=C(NCCCc1ccccc1)C1CCN(c2nnc3ccc(Cl)cn23)CC1 | 760 s |
| CC(C)n1cc(C2=CCN(S(=O)(=O)Cc3ccc(Cl)cc3)CC2)c2cccnc21 | 1130 s |
| O=C(Nc1ccc(F)cc1F)c1c(O)c2cccnc2n(-c2ccccc2)c1=O | 1250 s |
| Cc1cccc(NC(=O)Cn2nc3c(N(C)C4CCCCC4)nccn3c2=O)c1 | 714 s |
| O=C(Nc1ccc(OCc2nnc(-c3ccccc3)o2)cc1)C1CCCC1 | 885 s |
| Cc1nc(C)c(C(=O)NCC2Cn3cccc3C(=O)N2CC(C)C)s1 (centres undefined) | 671 s |
| O=C(NCc1cc(F)cc(F)c1)c1ccc2c(c1)nc1n2CCN(C2CCCCC2)C1=O | 830 s |
